Measured values reported in the supplement of paper PMC10883282.

Experiments:
Assay in all cases: relative viability vs DMSO control (72 h) (fraction); higher = more viable cells
SW1353 = test system: SW1353
In short: (§1)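 Sarcoma cell lines were grown in 384-well plates seeded toward 80–90% confluence and exposed 24 h later to serially diluted compound. After 72 h at 37 °C and 5% CO2, with 0.1% DMSO vehicle and a 5 µM positive control on the plates, ATPLite was read. Relative viability, given as percent growth averaged over up to triplicate wells, was rescaled so that 1 is full and 0 is none.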

SW684 = test system: SW684
In short: as §1

HT1080 = test system: HT1080
In short: as §1

HS729 = test system: HS729
In short: as §1

G401 = test system: G401
In short: as §1

SYO-1 = test system: SYO-1
In short: as §1

SK-LMS-1 = test system: SK-LMS-1
In short: as §1

KHOS-NP = test system: KHOS-NP
In short: as §1

RD = test system: RD
In short: as §1

SW872 = test system: SW872
In short: as §1

RD-ES = test system: RD-ES
In short: as §1

KHOS-240S = test system: KHOS-240S
In short: as §1

CCOc1cc2ncc(C#N)c(Nc3ccc(OCc4ccccn4)c(Cl)c3)c2cc1NC(=O)/C=C/[C@H]1CCCN1C [Pyrotinib]
Details	relative viability
G401, 5.081 pM	1.04
G401, 15.24 pM	1.03
G401, 45.72 pM	1.03
G401, 0.000137174 µM	1.05
G401, 0.000411523 µM	1.06
G401, 0.00123457 µM	1.02
G401, 0.0037037 µM	1.02
G401, 0.0111111 µM	1.024
G401, 0.0333333 µM	1.02
G401, 0.1 µM	1.02
G401, 0.3 µM	1.01
HS729, 5.081 pM	0.989
HS729, 15.24 pM	0.917
HS729, 45.72 pM	0.962
HS729, 0.000137174 µM	0.9073
HS729, 0.000411523 µM	0.875
HS729, 0.00123457 µM	0.866
HS729, 0.0037037 µM	0.857
HS729, 0.0111111 µM	0.918
HS729, 0.0333333 µM	0.91
HS729, 0.1 µM	0.858
HS729, 0.3 µM	0.808
HT1080, 5.081 pM	1.07
HT1080, 15.24 pM	1.13
HT1080, 45.72 pM	1.103
HT1080, 0.000137174 µM	1.13
HT1080, 0.000411523 µM	1.11
HT1080, 0.00123457 µM	1.06
HT1080, 0.0037037 µM	1.12
HT1080, 0.0111111 µM	1.09
HT1080, 0.0333333 µM	1.078
HT1080, 0.1 µM	1.07
HT1080, 0.3 µM	1.08
KHOS-240S, 5.081 pM	1.07
KHOS-240S, 15.24 pM	1.08
KHOS-240S, 45.72 pM	1.06
KHOS-240S, 0.000137174 µM	1.06
KHOS-240S, 0.000411523 µM	1.05
KHOS-240S, 0.00123457 µM	1.08
KHOS-240S, 0.0037037 µM	1.07
KHOS-240S, 0.0111111 µM	1.06
KHOS-240S, 0.0333333 µM	1.09
KHOS-240S, 0.1 µM	1.08
KHOS-240S, 0.3 µM	1.05
KHOS-NP, 5.081 pM	1.08
KHOS-NP, 15.24 pM	1.12
KHOS-NP, 45.72 pM	1.08
KHOS-NP, 0.000137174 µM	1.11
KHOS-NP, 0.000411523 µM	1.07
KHOS-NP, 0.00123457 µM	1.09
KHOS-NP, 0.0037037 µM	1.07
KHOS-NP, 0.0111111 µM	1.1
KHOS-NP, 0.0333333 µM	1.073
KHOS-NP, 0.1 µM	1.09
KHOS-NP, 0.3 µM	1.08
RD, 5.081 pM	1.06
RD, 15.24 pM	1.08
RD, 45.72 pM	1.11
RD, 0.000137174 µM	1.11
RD, 0.000411523 µM	1.07
RD, 0.00123457 µM	1.08
RD, 0.0037037 µM	1.14
RD, 0.0111111 µM	1.08
RD, 0.0333333 µM	1.11
RD, 0.1 µM	1.06
RD, 0.3 µM	1.07
RD-ES, 5.081 pM	0.971
RD-ES, 15.24 pM	0.968
RD-ES, 45.72 pM	0.969
RD-ES, 0.000137174 µM	0.978
RD-ES, 0.000411523 µM	0.983
RD-ES, 0.00123457 µM	0.971
RD-ES, 0.0037037 µM	0.965
RD-ES, 0.0111111 µM	0.9672
RD-ES, 0.0333333 µM	0.953
RD-ES, 0.1 µM	0.955
RD-ES, 0.3 µM	0.95
SK-LMS-1, 5.081 pM	1.06
SK-LMS-1, 15.24 pM	1.06
SK-LMS-1, 45.72 pM	1.06
SK-LMS-1, 0.000137174 µM	1.07
SK-LMS-1, 0.000411523 µM	1.08
SK-LMS-1, 0.00123457 µM	1.06
SK-LMS-1, 0.0037037 µM	1.09
SK-LMS-1, 0.0111111 µM	1.08
SK-LMS-1, 0.0333333 µM	1.07
SK-LMS-1, 0.1 µM	1.03
SK-LMS-1, 0.3 µM	1
SW684, 5.081 pM	1.15
SW684, 15.24 pM	1.24
SW684, 45.72 pM	1.221
SW684, 0.000137174 µM	1.188
SW684, 0.000411523 µM	1.19
SW684, 0.00123457 µM	1.17
SW684, 0.0037037 µM	1.21
SW684, 0.0111111 µM	1.19
SW684, 0.0333333 µM	1.15
SW684, 0.1 µM	1.17
SW684, 0.3 µM	1.1
SW872, 5.081 pM	1.05
SW872, 15.24 pM	1.06
SW872, 45.72 pM	1.06
SW872, 0.000137174 µM	1.06
SW872, 0.000411523 µM	1.07
SW872, 0.00123457 µM	1.05
SW872, 0.0037037 µM	0.987
SW872, 0.0111111 µM	1.01
SW872, 0.0333333 µM	1.04
SW872, 0.1 µM	0.987
SW872, 0.3 µM	0.913
SW1353, 5.081 pM	1.06
SW1353, 15.24 pM	1.05
SW1353, 45.72 pM	1.03
SW1353, 0.000137174 µM	0.994
SW1353, 0.000411523 µM	1.01
SW1353, 0.00123457 µM	1.04
SW1353, 0.0037037 µM	1.02
SW1353, 0.0111111 µM	1.02
SW1353, 0.0333333 µM	0.947
SW1353, 0.1 µM	0.889
SW1353, 0.3 µM	0.791
SYO-1, 5.081 pM	1.01
SYO-1, 15.24 pM	0.951
SYO-1, 45.72 pM	0.958
SYO-1, 0.000137174 µM	0.943
SYO-1, 0.000411523 µM	0.92
SYO-1, 0.00123457 µM	0.948
SYO-1, 0.0037037 µM	0.858
SYO-1, 0.0111111 µM	0.9
SYO-1, 0.0333333 µM	0.896
SYO-1, 0.1 µM	0.862
SYO-1, 0.3 µM	0.89

Cc1cn(-c2cc(NC(=O)c3ccc(C)c(Nc4nccc(-c5cnccn5)n4)c3)cc(C(F)(F)F)c2)cn1 [Radotinib]
Details	relative viability
G401, 0.00017 µM	1.02
G401, 0.00051 µM	1.06
G401, 0.00152 µM	1.07
G401, 0.00457 µM	1.1
G401, 0.01372 µM	1.12
G401, 0.04115 µM	1.11
G401, 0.1235 µM	1.1
G401, 0.3704 µM	1.08
G401, 1.111 µM	1.04
G401, 3.333 µM	0.984
G401, 10 µM	0.931
HS729, 0.00017 µM	0.995
HS729, 0.00051 µM	1.01
HS729, 0.00152 µM	1.02
HS729, 0.00457 µM	1.03
HS729, 0.01372 µM	0.995
HS729, 0.04115 µM	0.99
HS729, 0.1235 µM	1.02
HS729, 0.3704 µM	1.03
HS729, 1.111 µM	0.995
HS729, 3.333 µM	0.8744
HS729, 10 µM	0.875
HT1080, 0.00017 µM	1.07
HT1080, 0.00051 µM	1.06
HT1080, 0.00152 µM	1.07
HT1080, 0.00457 µM	1.07
HT1080, 0.01372 µM	1.07
HT1080, 0.04115 µM	1.06
HT1080, 0.1235 µM	1.07
HT1080, 0.3704 µM	1.09
HT1080, 1.111 µM	1.03
HT1080, 3.333 µM	1.12
HT1080, 10 µM	1.06
KHOS-240S, 0.00017 µM	1.07
KHOS-240S, 0.00051 µM	1.07
KHOS-240S, 0.00152 µM	1.07
KHOS-240S, 0.00457 µM	1.07
KHOS-240S, 0.01372 µM	1.05
KHOS-240S, 0.04115 µM	1.06
KHOS-240S, 0.1235 µM	1.07
KHOS-240S, 0.3704 µM	1.05
KHOS-240S, 1.111 µM	1.04
KHOS-240S, 3.333 µM	1.05
KHOS-240S, 10 µM	1.02
KHOS-NP, 0.00017 µM	1.12
KHOS-NP, 0.00051 µM	1.09
KHOS-NP, 0.00152 µM	1.11
KHOS-NP, 0.00457 µM	1.11
KHOS-NP, 0.01372 µM	1.12
KHOS-NP, 0.04115 µM	1.12
KHOS-NP, 0.1235 µM	1.11
KHOS-NP, 0.3704 µM	1.1
KHOS-NP, 1.111 µM	1.1
KHOS-NP, 3.333 µM	1.09
KHOS-NP, 10 µM	1.07
RD, 0.00017 µM	1.11
RD, 0.00051 µM	1.1
RD, 0.00152 µM	1.12
RD, 0.00457 µM	1.12
RD, 0.01372 µM	1.12
RD, 0.04115 µM	1.11
RD, 0.1235 µM	1.13
RD, 0.3704 µM	1.12
RD, 1.111 µM	1.1
RD, 3.333 µM	1.07
RD, 10 µM	1.04
RD-ES, 0.00017 µM	0.982
RD-ES, 0.00051 µM	1.02
RD-ES, 0.00152 µM	1.01
RD-ES, 0.00457 µM	1.02
RD-ES, 0.01372 µM	1.005
RD-ES, 0.04115 µM	1.01
RD-ES, 0.1235 µM	1.03
RD-ES, 0.3704 µM	1.01
RD-ES, 1.111 µM	1
RD-ES, 3.333 µM	0.991
RD-ES, 10 µM	1.01
SK-LMS-1, 0.00017 µM	1.05
SK-LMS-1, 0.00051 µM	1.07
SK-LMS-1, 0.00152 µM	1.08
SK-LMS-1, 0.00457 µM	1.05
SK-LMS-1, 0.01372 µM	1.08
SK-LMS-1, 0.04115 µM	1.14
SK-LMS-1, 0.1235 µM	1.14
SK-LMS-1, 0.3704 µM	1.19
SK-LMS-1, 1.111 µM	1.11
SK-LMS-1, 3.333 µM	1.18
SK-LMS-1, 10 µM	1.12
SW684, 0.00017 µM	1.13
SW684, 0.00051 µM	1.17
SW684, 0.00152 µM	1.2
SW684, 0.00457 µM	1.21
SW684, 0.01372 µM	1.17
SW684, 0.04115 µM	1.19
SW684, 0.1235 µM	1.26
SW684, 0.3704 µM	1.33
SW684, 1.111 µM	1.38
SW684, 3.333 µM	1.24
SW684, 10 µM	1.22
SW872, 0.00017 µM	1.06
SW872, 0.00051 µM	1.07
SW872, 0.00152 µM	1.07
SW872, 0.00457 µM	1.07
SW872, 0.01372 µM	1.07
SW872, 0.04115 µM	1.07
SW872, 0.1235 µM	1.08
SW872, 0.3704 µM	1.06
SW872, 1.111 µM	0.98
SW872, 3.333 µM	0.915
SW872, 10 µM	0.889
SW1353, 0.00017 µM	1.02
SW1353, 0.00051 µM	1.023
SW1353, 0.00152 µM	1.06
SW1353, 0.00457 µM	1.06
SW1353, 0.01372 µM	1.06
SW1353, 0.04115 µM	1.1
SW1353, 0.1235 µM	1.19
SW1353, 0.3704 µM	1.21
SW1353, 1.111 µM	1.25
SW1353, 3.333 µM	1.22
SW1353, 10 µM	1.17
SYO-1, 0.00017 µM	0.976
SYO-1, 0.00051 µM	0.978
SYO-1, 0.00152 µM	0.987
SYO-1, 0.00457 µM	0.967
SYO-1, 0.01372 µM	0.989
SYO-1, 0.04115 µM	0.988
SYO-1, 0.1235 µM	0.993
SYO-1, 0.3704 µM	0.945
SYO-1, 1.111 µM	0.802
SYO-1, 3.333 µM	0.688
SYO-1, 10 µM	0.644
